Data from article PMC7824033, “Flavones, Flavonols, and Glycosylated Derivatives—Impact on Candida albicans Growth and Virulence, Expression of CDR1 and ERG11, Cytotoxicity” (Pharmaceuticals, 2020).
≈ marks a conversion by molar mass, not a printed value. Entries after “also recorded” stand apart in the source; their conditions may differ. Read-outs that look alike come from different tables or passages of the source.

What was measured:
[1] = tested on: C. albicans 475/15 hyphal growth; experiment: Anti-hyphal forming activity; assay type: cell-based, Candida albicans; conditions: MIC, 4 h, YPD + 10% FBS
Protocol: C. albicans 475/15 cells were incubated with MIC of tested compounds in YPD + 10% FBS, at 37 °C, for 4 h. Cells were examined under microscope (Nikon Eclipse TS2, Amsterdam, Netherland) and number of cells, growing in the yeast or hyphal and germ tube formations, was determined. Assay was performed in triplicate and percentage of hyphae was determined.

CDR1 [2] = experiment: Expression of CDR1 (qPCR); assay type: cell-based, Candida albicans; conditions: treatment with MIC
Protocol: Total RNA was isolated as described by Sanglard et al. with some modifications. C. albicans 475/15 was grown with agitation at 30 °C in YEPD until OD540 = 0.4. C. albicans cells were incubated with MIC of compounds in YEPD at 30 °C with agitation for 30 min. Cells were centrifuged (4600 rpm, 4 °C for 5 min (Rotanata 460 R, Hettich, Tuttlingen, Germany)) and the pellet was resuspended in 300 µL of RNA buffer (0.1 M Tris-HCl pH 7.5, 0.1M LiCl, 10mM EDTA, 0.5% SDS). The pellet was homogenized with 200 µL of DEPC treated glass beads and 300 µL of Phenol:Chloroform:Isoamyl Alcohol (Sigma-Aldrich, Darmstadt, Germany) in Precellys Evolution tissue homogenizer (Bertion instruments, Montigny-le-Bretonneux, France) at 4500 rpm for 5 s. After centrifugation (14,000 rpm, 4 °C, 1 min (Universal 32 R, Hettich, Tuttlingen, Germany)) 200 µL of supernatant was vortexed with 250 µL of Phenol:Chloroform:Isoamyl Alcohol for 10 s. Samples were centrifuged (14,000 rpm, 4 °C, 1 min) and 200 µL of supernatant was transferred to new tubes, 400 µL of ice-cold 99% ethanol was added to each tube, and they were kept on dry ice for 10 min. Samples were centrifuged (14,000 rpm, 4 °C, 2 min), pellet was washed with ethanol (70%), left to dry at room temperature, after which it was dissolved in 50 µL of DEPC treated water. Nanodrop (ND-1000, Witec AG, Sursee, Switzerland) was used for determination of concentration and purity of samples. RNA was stored at −80°C.
Amount of 10 µg RNA was incubated with 5 µL of DNAse buffer and 1 µL of DNAse at 37 °C for 30 min (DNA-free™ DNA Removal Kit, Ambion, Bleiswijk, Netherlands). After addition of DNAse inactivation reagent tubes were kept at room temperature with occasional vortexing for 5 min. Samples were centrifuged (14,000 rpm, 4°C, 2 min) and the concentration and quality of supernatant were analyzed on Nanodrop (ND-1000, Witec AG, Sursee, Switzerland).
Synthesis of cDNA was done with a Transcriptor High Fidelity cDNA synthesis kit (Roche). RNA (1 µg) was incubated with 60 µM random hexamer primers, in 11.4 µL of total sample volume, at 65 °C for 10 min. The mixture of Transcriptase reaction buffer 5×, Deoxynucleotide mix, DTT, Protector RNAse inhibitor, and Transcriptor High Fidelity Reverse Transcriptase was added to each tube according to manufacturer instructions. Synthesis of cDNA was completed by incubating the mixture at 50 °C for 30 min and 85 °C for 5 min (Peqstar thermocycler, Peqlab, Erlangen, Germany).
Wells of MicroAmp Fast 96-Well Reaction plate ((0.1 mL), Applied biosystems, Waltham, MA, USA) were incubated with 10 µL of mixture (cDNA, 2× MasterMix, primers, probe (Table 3), and water). Analysis was performed in StepOnePlus Real Time PCR system with relative standard curve method. Expression levels of CDR1 and ERG11 were normalized to expression of ACT1.

[3] = tested on: C. albicans 475/15 biofilm formation; experiment: Inhibition of biofilm formation (crystal violet); assay type: cell-based, Candida albicans
Protocol: Potential of selected compounds to interfere with C. albicans 475/15 biofilm formation was investigated as previously described. Briefly, C. albicans 475/15 was incubated with serial dilution of the compounds (MIC and subMICs) in YPD medium, in 96-well microtiter plates with adhesive bottom (Sarstedt, Nümbrecht, Germany), at 37 °C for 24 h. After incubation, wells were washed twice with sterile PBS and methanol was added into each well. After fixation, methanol was discarded, and the plate was air dried. Formed biofilms were stained with 0.1% crystal violet (Bio-Merieux, Craponne, France) for 30 min. The plate was gently washed under the tap of water and air dried. The stain bound to the remaining biofilms was dissolved with ethanol (96%, Zorka, Šabac, Serbia). Absorbance was read on a Multiskan™ FC Microplate Photometer, Thermo Scientific™. The percentage of inhibition of biofilm formation was calculated by the formula:[(A620control − A620sample)/A620control] × 100

C. albicans 475/15 [4] = tested on: C. albicans 475/15; set-up: method as in PMID 28827996; conditions: previously published; cited from earlier work
porcine liver cells PLP2 = experiment: Cytotoxicity, Sulforhodamine B assay
Protocol: (§1) Preparation of PLP2 cell line was performed with freshly harvested porcine liver supplied from a local slaughter house. Tissues from the liver were washed in Hank’s balanced salt solution comprising 100 U/mL penicillin and 100 μg/mL streptomycin and split into 1 × 1 mm^3 explants. Some of the prepared explants were set in 25 cm^2 tissue flasks in Dulbecco’s modified Eagle’s medium (DMEM) with 10% fetal bovine serum (FBS), 2 mM nonessential amino acids, 100 U/mL penicillin, and […] streptomycin, and incubation was conducted at 37 °C with 5% CO2 in a humidified atmosphere. The fresh medium was added every 2 days. Cultivation of the cells was further conducted with direct observation by the phase contrast microscope every 2–3 days. Before confluence was achieved, cells were subcultured and seeded in 96-well plates at a density of 1.0 × 10^4 cells per well and cultivated in DMEM supplemented with 10% FBS, 100 U/mL penicillin, and 100 μg/mL streptomycin. Previously described Sulforhodamine B assay was used for the determination of cytotoxicity. The obtained results were defined as GI50 values corresponding to the compound concentration that inhibits 50% of the net cell growth. Ellipticine was used as a positive control.

[5] = Cytotoxicity, Sulforhodamine B assay; conditions: pig
Protocol: as §1

3T3-L1 pre-adipocytes = conditions: up to 100 μM; cited from earlier work
ERG11 = conditions: identical assay, previously published; cited from earlier work
C. albicans 475/15 [6] = experiment: Microdilution assay, MIC and MFC; assay type: cell-based; conditions: Candida albicans, C. albicans 475/15, mean ± SD of three replicates; for MFC: read-out: MFC; for MIC: read-out: MIC
Source text: (§2) C. albicans was isolated from oral cavities of patients at ENT Clinic, Clinical Hospital Centre Zvezdara, Belgrade, Serbia after obtaining informed written consent and identified by using CHROMagar plates (Biomerieux, Craponne, France). Strains were maintained on Sabouraud Dextrose Agar (Merck, Darmstadt, Germany) and are deposited at the Mycological Laboratory, Department of Plant Physiology, Institute for Biological Research “Siniša Stanković”, National Institute of Republic of Serbia, University of Belgrade. The collection of samples was approved by the Ethical Committee (Office for Human Research Protection, Zvezdara University Medical Center, Belgrade, Serbia, document issued 26 October 2016).
(§3) Microdilution assay with some modification was used for determination of minimum inhibitory (MIC) and minimum fungicidal concentrations (MFC). Yeast cultures were adjusted to 1.0 × 10^5 CFU/per well with sterile PBS (Phosphate buffered saline, pH 7.4). The 96-well microtiter plates with serially diluted flavonoids (concentration range 0.3–75 µg/mL) in liquid broth were incubated at 37 °C for 24 h. After incubation, MIC and MFC were determined. The lowest concentrations that were not inducing microscopically observed growth were considered as MIC. For microscopic determination of growth, we used inverted microscope Nikon Eclipse TS2 (Amsterdam, Netherland) and examined the fungal growth in the wells of 96-well microtiter plates compared to the control (untreated yeast cells). MFC values were determined as concentrations without visible growth after serial sub-cultivation of 10 µL of samples at 37 °C for 24 h. Ketoconazole and amphotericin B (SigmaAldrich, Darmstadt, Germany) were used as an antifungal control. The tested flavonoids were obtained from Extrasynthese, Rhone, France.

C. albicans 527/14 = experiment: Microdilution assay, MIC and MFC; assay type: cell-based; conditions: Candida albicans, C. albicans 527/14, mean ± SD of three replicates; for MFC: read-out: MFC; for MIC: read-out: MIC
Source text: as §2, §3

C. albicans 10/15 = experiment: Microdilution assay, MIC and MFC; assay type: cell-based; conditions: Candida albicans, C. albicans 10/15, mean ± SD of three replicates; for MFC: read-out: MFC; for MIC: read-out: MIC
Source text: as §2, §3

C. albicans 13/15 = experiment: Microdilution assay, MIC and MFC; assay type: cell-based; conditions: Candida albicans, C. albicans 13/15, mean ± SD of three replicates; for MFC: read-out: MFC; for MIC: read-out: MIC
Source text: as §2, §3

CDR1 [7] = conditions: identical assay, previously published; cited from earlier work
S. aureus efflux = tested on: S. aureus efflux; set-up: method as in PMID 25961825; conditions: S. aureus; cited from earlier work
C. albicans biofilm = conditions: 625–5000 µg/mL; C. albicans ATCC 90028; cited from earlier work
Candida albicans = experiment: Microdilution assay, MIC (strain not named); assay type: cell-based; conditions: C. albicans, this study, strain not given, read-out: minimum inhibitory concentration (MIC)
Source text: as §2, §3

[8] = tested on: HUVE (human umbilical vein endothelial) cells; conditions: read-out: LC50; cited from earlier work
C. albicans = conditions: cited from earlier work
[9] = tested on: TIG-1 (human lung embryonic fibroblasts); conditions: read-out: LC50; TIG-1 cells; cited from earlier work

Compound: O=c1cc(-c2ccc(O)cc2)oc2cc(O[C@@H]3O[C@H](CO)[C@@H](O)[C@H](O)[C@H]3O)cc(O)c12 [Apigetrin, apigetrin]
- reduction of hyphal growth (words) [1]: lowest number of cells growing in the hyphal form; also recorded: strongest anti-hyphal potential
- impact on CDR1 expression (CDR1 [2]): downregulated; also recorded: inhibitory impact; also recorded: lowering CDR1 expression
- CDR1 expression level, log2FC (CDR1 [2]; 30 min, normalized to ACT1): < −1 log2FC
- antibiofilm activity ([3]; MIC and subMICs): notably lowered
- inhibition of biofilm formation ([3]; compound applied at MIC/2): > 60%
- reduction of biofilm formation ([3]; concentration not given): more than 50%
- MIC (C. albicans 475/15 [4]): 50 µg/mL (≈ 116 µM)
- cytotoxic effect (porcine liver cells PLP2; PLP2 cells): some cytotoxic effect
- GI50 [5]: 90 ± 1 µg/mL (≈ 208 µM)
- cytotoxicity (3T3-L1 pre-adipocytes): does not induce cytotoxicity

Compound: CC(=O)N1CCN(c2ccc(OCC3COC(Cn4ccnc4)(c4ccc(Cl)cc4Cl)O3)cc2)CC1 (stereo not drawn) [Ketoconazole, reference compound]
- impact on ERG11 expression (words) (ERG11): lack
- MFC (C. albicans 475/15 [6]): 6.2 ± 0.1 µg/mL (≈ 11.7 µM)
- MIC (C. albicans 475/15 [6]): 3.1 ± 0.1 µg/mL (≈ 5.83 µM)
- MFC (C. albicans 527/14): 6.2 ± 0.1 µg/mL (≈ 11.7 µM)
- MIC (C. albicans 527/14): 3.1 ± 0.1 µg/mL (≈ 5.83 µM)
- MFC (C. albicans 10/15): 50 ± 0.1 µg/mL (≈ 94.1 µM)
- MIC (C. albicans 10/15): 3.1 ± 0.1 µg/mL (≈ 5.83 µM)
- MFC (C. albicans 13/15): 50 ± 0.2 µg/mL (≈ 94.1 µM)
- MIC (C. albicans 13/15): 1.6 ± 0.2 µg/mL (≈ 3.01 µM)
- impact on CDR1 expression (CDR1 [7]): lack

Compound: O=c1cc(-c2ccc(O)c(O)c2)oc2cc(O)cc(O)c12 [Luteolin, luteolin]
- IC50, efflux inhibition (S. aureus efflux): 75 µg/mL (≈ 262 µM)
- activity towards biofilm (C. albicans biofilm): inefficient
- MIC (Candida albicans): 37.5 µg/mL (≈ 131 µM)
- impact on CDR1 expression (CDR1 [2]): did not exhibit any significant inhibitory potential
- MFC (C. albicans 475/15 [6]): 75 ± 2 µg/mL (≈ 262 µM)
- MIC (C. albicans 475/15 [6]): 37.5 ± 1 µg/mL (≈ 131 µM)
- MFC (C. albicans 527/14): 75 ± 20 µg/mL (≈ 262 µM)
- MIC (C. albicans 527/14): 37.5 ± 1 µg/mL (≈ 131 µM)
- MFC (C. albicans 10/15): 75 ± 2 µg/mL (≈ 262 µM)
- MIC (C. albicans 10/15): 37.5 ± 1 µg/mL (≈ 131 µM)
- MFC (C. albicans 13/15): 75 ± 2 µg/mL (≈ 262 µM)
- MIC (C. albicans 13/15): 37.5 ± 1 µg/mL (≈ 131 µM)
- CC50 [8]: 57 µM
- cytotoxic effect (porcine liver cells PLP2): did not exhibit cytotoxic effect
- GI50 [5]: > 400 µg/mL
- MIC (C. albicans; clinical isolates and C. albicans 10231): > 83 µg/mL
- MIC (C. albicans; different C. albicans strains, ref 13): 3100 µg/mL (≈ 10800 µM)
- MIC (C. albicans; different C. albicans strains, ref 15): > 1000 µg/mL
- CC50 [9]: 107 µM
